How the values were obtained:
Test in all cases: combination Emax (second highest fraction inhibited in the dose matrix, 72 h); higher = more inhibition; extreme values may be limits of the assay
[1] = test system: ASH-3 (Thyroid Gland Carcinoma)
Outline: (§1)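 Cell lines in DMEM/F12 or RPMI with 10% FBS were plated in 1536-well plates, held 24 hours at 37°C, 5% CO2, then given two-drug dose matrices for 72 hours (DMSO typically 0.2%). Viability was read by CellTiter-Glo 2.0 luminescence and scaled as inhibition from 0 (vehicle wells) to 1 (blank wells). Combination Emax is the second-highest inhibition in the matrix; Bliss excess is observed combination effect minus expected EA + EB − EA·EB, EA and EB being single-agent effects.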

[2] = test system: DG-75 (Burkitt's Lymphoma)
Outline: as §1

[3] = test system: EMC-BAC-2 (Non-Small Cell Lung Carcinoma)
Outline: as §1

[4] = test system: GOTO (Neuroblastoma)
Outline: as §1

[5] = test system: HC-1 (Other Blood Carcinomas)
Outline: as §1

[6] = test system: KU-19-19 (Bladder Carcinoma)
Outline: as §1

[7] = test system: KYSE-150 (Esophageal Squamous Cell Carcinoma)
Outline: as §1

[8] = test system: LOU-NH91 (Squamous Cell Lung Carcinoma)
Outline: as §1

[9] = test system: NCI-H1573 (Lung Adenocarcinoma)
Outline: as §1

[10] = test system: NCI-H2347 (Lung Adenocarcinoma)
Outline: as §1

[11] = test system: NCI-H322M (Lung Adenocarcinoma)
Outline: as §1

[12] = test system: NCI-H513 (Other Solid Carcinomas)
Outline: as §1

[13] = test system: NH-12 (Neuroblastoma)
Outline: as §1

[14] = test system: U-87-MG (Glioblastoma)
Outline: as §1

[15] = test system: EW-3 (Ewing's Sarcoma)
Outline: as §1

[16] = test system: HSC-2 (Oral Cavity Carcinoma)
Outline: as §1

[17] = test system: JHH-7 (Hepatocellular Carcinoma)
Outline: as §1

[18] = test system: LC4-1 (B-Lymphoblastic Leukemia)
Outline: as §1

[19] = test system: NCI-N87 (Gastric Carcinoma)
Outline: as §1

[20] = test system: TGBC11TKB (Gastric Carcinoma)
Outline: as §1

Row | SMILES | combination Emax [1] | combination Emax [2] | combination Emax [3] | combination Emax [4] | combination Emax [5] | combination Emax [6] | combination Emax [7] | combination Emax [8] | combination Emax [9] | combination Emax [10] | combination Emax [11] | combination Emax [12] | combination Emax [13] | combination Emax [14] | combination Emax [15] | combination Emax [16] | combination Emax [17] | combination Emax [18] | combination Emax [19] | combination Emax [20]
1 | C[C@@H](c1ccc2nccn2c1)n1nnc2ncc(-c3cnn(C)c3)nc21 [Savolitinib] + CN(CC[C@H](CSC1=CC=CC=C1)NC2=C(C=C(C=C2)S(=O)(=O)NC(=O)C3=CC=C(C=C3)N4CCC(CC4)[C@H](C5=CC=CC=C5C6=CC=C(C=C6)Cl)O)S(=O)(=O)C(F)(F)F)CCO [AZD4320] (first compound max 1 µM, 7x7, partner max 1 µM) | 0.463 | 0.057 | 0.216 | 0.495 | 0.546 | 0.194 | 0.219 | 0.334 | 0.218 | 0.413 | 0.0979 | 0.113 | 0.824 | 0.259 |  |  |  |  |  | 
2 | Cc1c2c(nn1C)CSCc1cc(n(C)n1)CSc1cc(c3ccccc3c1)OCCCc1c(C(=O)O)n(C)c3c-2c(Cl)ccc13 [AZD5991] + C1CN(CCC1(C(=O)N[C@@H](CCO)C2=CC=C(C=C2)Cl)N)C3=NC=NC4=C3C=CN4 [Capivasertib] (first compound max 1 µM, 7x7, partner max 3 µM) | 0.267 | 0.257 | 0.718 | 0.725 | 0.588 | 0.174 | 0.397 | 0.427 | 0.264 | 0.134 | 0.225 |  | 0.32 | 0.372 | 0.649 | 0.976 | 0.188 | 0.989 | 0.422 | 0.472
3 | Cc1cc2ncnn2cc1Nc1ncc2c(n1)n(C1CCOCC1)c(=O)n2C [AZD7648] + CCN(CCO)CCCOc1ccc2c(Nc3cc(CC(=O)Nc4cccc(F)c4)[nH]n3)ncnc2c1 [AZD2811] (first compound max 10 µM, 7x7, partner max 1 µM) | 0.324 | 0.475 | 0.349 | 0.491 | 0.737 | 0.489 | 0.658 | 0.37 | 0.214 | 0.302 | 0.352 | 0.116 | 0.667 |  | 0.397 | 0.547 | 0.296 | 0.839 | 0.44 | 0.327
4 | CN(C)CCCOc1ccc(-c2ccc3ncc4c(c3c2)n(C2CCOCC2)c(=O)n4C)cn1 [AZD0156] + CCN(CCO)CCCOc1ccc2c(Nc3cc(CC(=O)Nc4cccc(F)c4)[nH]n3)ncnc2c1 [AZD2811] (first compound max 1 µM, 7x7, partner max 1 µM) | 0.155 | 0.365 | 0.253 | 0.649 | 0.379 | 0.349 | 0.422 | 0.208 | 0.106 | 0.148 | 0.123 | 0.136 | 0.674 |  | 0.34 | 0.289 | 0.143 | 0.808 | 0.253 | 0.325
5 | Cc1cc2ncnn2cc1Nc1ncc2c(n1)n(C1CCOCC1)c(=O)n2C [AZD7648] + O=C(c1cc(Cc2n[nH]c(=O)c3ccccc23)ccc1F)N1CCN(C(=O)C2CC2)CC1 [Olaparib] (first compound max 10 µM, 7x7, partner max 10 µM) | 0.321 | 0.481 | 0.204 | 0.525 | 0.521 | 0.251 | 0.537 | 0.186 | 0.0771 | 0.224 | 0.325 | 0.257 | 0.317 |  | 0.657 | 0.228 | 0.159 | 0.442 | 0.301 | 0.269
6 | CCc1c2c(nc3ccc(O)cc13)-c1cc3c(c(=O)n1C2)COC(=O)[C@]3(O)CC [SN-38] + CN(C)CCCOc1ccc(-c2ccc3ncc4c(c3c2)n(C2CCOCC2)c(=O)n4C)cn1 [AZD0156] (first compound max 0.3 µM, 7x7, partner max 1 µM) | 0.844 | 0.856 | 0.594 | 0.861 | 1 | 0.828 | 0.732 | 0.857 | 0.228 | 0.564 | 0.811 | 0.544 | 0.838 |  | 0.838 | 0.965 | 0.208 | 0.932 | 0.697 | 0.772
7 | Cc1cc2ncnn2cc1Nc1ncc2c(n1)n(C1CCOCC1)c(=O)n2C [AZD7648] + CN(C)CCCOc1ccc(-c2ccc3ncc4c(c3c2)n(C2CCOCC2)c(=O)n4C)cn1 [AZD0156] (first compound max 10 µM, 7x7, partner max 1 µM) | 0.332 | 0.409 | 0.311 | 0.163 | 0.386 | 0.212 | 0.532 | 0.279 | 0.15 | 0.336 | 0.368 | 0.133 | 0.153 |  | 0.386 | 0.398 | 0.177 | 0.42 | 0.477 | 0.247
8 | CN(C)CCCOc1ccc(-c2ccc3ncc4c(c3c2)n(C2CCOCC2)c(=O)n4C)cn1 [AZD0156] + C=CCn1c(=O)c2cnc(Nc3ccc(N4CCN(C)CC4)cc3)nc2n1-c1cccc(C(C)(C)O)n1 [AZD1775] (first compound max 1 µM, partner max 1 µM) | 0.203 | 0.759 | 0.304 | 0.865 | 0.994 | 0.751 | 0.448 | 0.371 | 0.159 | 0.335 | 0.77 | 0.393 | 0.877 |  | 0.357 | 0.54 | 0.136 | 0.916 | 0.726 | 0.895
9 | COc1cccc(OCCCN)c1-c1cc(Nc2cnc(C#N)cn2)n[nH]1 [Prexasertib] + O=C(c1cc(Cc2n[nH]c(=O)c3ccccc23)ccc1F)N1CCN(C(=O)C2CC2)CC1 [Olaparib] (first compound max 1 µM, 7x7, partner max 10 µM) | 0.694 | 0.827 | 0.44 | 0.858 | 1 | 0.886 | 0.61 | 0.573 | 0.608 | 0.378 | 0.83 | 0.295 | 0.893 |  | 0.815 | 0.782 | 0.442 | 0.982 | 0.668 | 0.952
10 | COc1cccc(OCCCN)c1-c1cc(Nc2cnc(C#N)cn2)n[nH]1 [Prexasertib] + CN(C)CCCOc1ccc(-c2ccc3ncc4c(c3c2)n(C2CCOCC2)c(=O)n4C)cn1 [AZD0156] (first compound max 1 µM, 7x7, partner max 1 µM) | 0.565 | 0.964 | 0.591 | 0.908 | 1 | 0.865 | 0.365 | 0.445 | 0.652 | 0.42 | 0.982 | 0.343 | 0.918 |  | 0.683 | 0.776 | 0.411 | 0.978 | 0.706 | 0.963
11 | CC(=O)c1c(C)c2cnc(Nc3ccc(N4CCNCC4)cn3)nc2n(C2CCCC2)c1=O [Palbociclib] + CN(CC[C@H](CSC1=CC=CC=C1)NC2=C(C=C(C=C2)S(=O)(=O)NC(=O)C3=CC=C(C=C3)N4CCC(CC4)[C@H](C5=CC=CC=C5C6=CC=C(C=C6)Cl)O)S(=O)(=O)C(F)(F)F)CCO [AZD4320] (first compound max 10 µM, 7x7, partner max 1 µM) | 0.692 | 0.735 | 0.366 | 0.846 | 0.831 | 0.54 | 0.607 | 0.618 | 0.306 | 0.458 | 0.517 | 0.205 | 0.988 | 0.312 |  |  |  |  |  | 
12 | COc1nnc2ccc(N3CCC(c4ccc(OCCN5CCN(C)C(=O)[C@H]5C)cc4)CC3)nn12 [AZD5153] + CN(CC[C@H](CSC1=CC=CC=C1)NC2=C(C=C(C=C2)S(=O)(=O)NC(=O)C3=CC=C(C=C3)N4CCC(CC4)[C@H](C5=CC=CC=C5C6=CC=C(C=C6)Cl)O)S(=O)(=O)C(F)(F)F)CCO [AZD4320] (first compound max 1 µM, 7x7, partner max 1 µM) | 0.958 | 0.881 | 0.661 | 0.858 | 0.695 | 0.755 | 0.607 | 0.781 | 0.356 | 0.518 | 0.563 | 0.409 | 0.91 | 0.625 |  |  |  |  |  | 
13 | CCN(CCO)CCCOc1ccc2c(Nc3cc(CC(=O)Nc4cccc(F)c4)[nH]n3)ncnc2c1 [AZD2811] + C[C@@H]1COCCN1C2=NC(=NC(=C2)C3(CC3)[S@](=N)(=O)C)C4=C5C=CNC5=NC=C4 [AZD6738] (first compound max 1 µM, 7x7, partner max 10 µM) | 0.486 | 0.841 | 0.459 | 0.893 | 0.789 | 0.779 | 0.533 | 0.27 | 0.479 | 0.343 | 0.852 | 0.283 | 0.858 |  | 0.724 | 0.68 | 0.275 | 0.97 | 0.744 | 0.791

— the supplement of paper PMC11061612
